Results published in the NIST ThermoML archive (doi:10.1016/j.jct.2010.12.022).
Several values for one entry are separate records, joined by “and”; a condition that tells them apart may be missing. Equal entries are not always repeated.

Details: Crystal, Calculated from knudsen effusion weight loss

c1ccc2cc3ccccc3cc2c1 [anthracene]
Details | vapor or sublimation pressure
323.31 K | 2.21e-05 kPa
327.16 K | 3.51e-05 kPa
331.27 K | 5.47e-05 kPa
335.32 K | 8.42e-05 kPa
339.31 K | 0.00013 kPa
343.32 K | 0.000197 kPa
347.26 K | 0.000281 kPa
347.33 K | 0.000289 kPa
351.27 K | 0.00043 kPa
351.33 K | 0.000426 kPa and 0.000424 kPa
355.26 K | 0.000604 kPa
355.33 K | 0.000634 kPa
357.34 K | 0.000783 kPa
359.26 K | 0.000876 kPa
359.33 K | 0.000945 kPa
363.34 K | 0.001374 kPa
367.27 K | 0.001898 kPa
367.35 K | 0.001967 kPa
371.35 K | 0.002859 kPa
375.36 K | 0.004145 kPa

O=C1c2ccccc2-c2cccc3cccc1c23 [7H-benz[de]anthracen-7-one]
Details | vapor or sublimation pressure [kPa]
388.22 K | 0.0001308
389.22 K | 0.0001419
390.22 K | 0.0001594
391.22 K | 0.0001742
392.19 K | 0.0001926
392.22 K | 0.0001937
393.23 K | 0.0002126
394.2 K | 0.000232
394.23 K | 0.0002331
395.24 K | 0.0002574
396.2 K | 0.0002786
396.23 K | 0.0002797
397.24 K | 0.0003067
398.2 K | 0.0003364
398.23 K | 0.0003376
399.24 K | 0.0003702
400.21 K | 0.0004108
400.24 K | 0.000412
401.24 K | 0.0004472
402.21 K | 0.0004911
402.24 K | 0.0004922
403.25 K | 0.000532
404.21 K | 0.0005813
406.21 K | 0.0007014
408.22 K | 0.0008383

c1ccc(-c2cc(-c3ccccc3)cc(-c3ccccc3)c2)cc1 [1,3,5-triphenylbenzene]
Details | vapor or sublimation pressure
404.34 K | 9.95e-05 kPa
405.34 K | 0.0001076 kPa
407.27 K | 0.000136 kPa
408.34 K | 0.0001462 kPa
408.35 K | 0.0001487 kPa
410.36 K | 0.0001809 kPa
412.35 K | 0.0002238 kPa and 0.0002202 kPa
413.28 K | 0.000252 kPa
414.37 K | 0.0002718 kPa
416.35 K | 0.0003305 kPa
416.37 K | 0.0003361 kPa
418.28 K | 0.000412 kPa
418.39 K | 0.000405 kPa
420.36 K | 0.0004929 kPa
420.39 K | 0.0005004 kPa
422.41 K | 0.000601 kPa
423.28 K | 0.000671 kPa
424.37 K | 0.000729 kPa
424.42 K | 0.0007385 kPa
426.43 K | 0.0008947 kPa
428.29 K | 0.001087 kPa
428.38 K | 0.00108 kPa
428.45 K | 0.001096 kPa
